From ChEMBL document CHEMBL4130418, “From dual binding site acetylcholinesterase inhibitors to allosteric modulators: A new avenue for disease-modifying drugs in Alzheimer's disease” (Eur J Med Chem, 2017)
Active and inactive are the calls of the source. The calls are words filed in the database; no cut-off is given here.

Experiments:
Cholinesterase = Cholinesterase (Homo sapiens, UniProt P06276); assay: Inhibition of human serum BuChE using butyrylthiocholine iodide as substrate preincubated for 5 mins followed by substrate addition measured over 5 mins by UV-Vis spectrophotometric analysis
Acetylcholinesterase [1] = biological target: T1, Acetylcholinesterase (Homo sapiens, UniProt P22303); assay: Inhibition of human AChE using acetylthiocholine iodide as substrate preincubated for 5 mins followed by substrate addition measured over 5 mins by UV-Vis spectrophotometric analysis
SH-SY5Y [2] = assay: Cytoprotection against amyloid beta (1 to 42) peptide induced cell death in human SH-SY5Y cells assessed as increase in clonogenic survival after 24 hrs by Giemsa staining-based inverted microscopic analysis; format: functional; conditions: read-out: MEC
SH-SY5Y [3] = assay: Induction of neuronal differentiation in human SH-SY5Y cells assessed as decrease in cell proliferation at 0.13 uM followed by culture medium replacement for every three days for 10 days by inverted-phase microscopic analysis; format: functional, cell-based
HepG2 [4] = assay: Cytotoxicity against human HepG2 cells assessed as reduction in cell viability at 2.84 to 5.68 uM after 24 hrs by XTT assay; format: cell-based; conditions: hepg2, 24 h
SH-SY5Y [5] = assay: Induction of neuronal differentiation in human SH-SY5Y cells assessed as neurite bearing cells at 0.13 uM followed by culture medium replacement for every three days for 10 days by inverted-phase microscopic analysis relative to control; format: functional
SH-SY5Y [6] = assay: Induction of neuronal differentiation in human SH-SY5Y cells assessed as extensive neurites formation at 0.13 uM followed by culture medium replacement for every three days for 10 days by inverted-phase microscopic analysis; format: functional, cell-based
SH-SY5Y [7] = assay: Cytotoxicity against human SH-SY5Y cells assessed as reduction in cell viability at 2.84 uM after 24 hrs by XTT assay; format: cell-based
SH-SY5Y [8] = assay: Induction of neuronal differentiation in human SH-SY5Y cells assessed as decrease in cell proliferation at 0.014 uM followed by culture medium replacement for every three days for 10 days by inverted-phase microscopic analysis; format: functional, cell-based
SH-SY5Y [9] = assay: Cytotoxicity against human SH-SY5Y cells assessed as reduction in cell viability at 0.056 uM after 24 hrs by XTT assay; format: cell-based
Acetylcholinesterase [10] = biological target: T1, Acetylcholinesterase; assay: Noncompetitive inhibition of human AChE using acetylthiocholine iodide as substrate preincubated for 5 mins followed by substrate addition measured over 5 mins by Lineweaver-Burk plot analysis
SH-SY5Y [11] = assay: Induction of neuronal differentiation in human SH-SY5Y cells assessed as extensive neurites formation at 0.014 uM followed by culture medium replacement for every three days for 10 days by inverted-phase microscopic analysis; format: functional, cell-based
[12] = biological target: Acetylcholinesterase (Electrophorus electricus) (UniProt O42275); assay: Binding affinity to electric eel AChE in presence of 80 to 1216 uM donepezil by STD NMR spectroscopy method
HepG2 [13] = assay: Cytotoxicity against human HepG2 cells assessed as reduction in cell viability at 0.0035 to 0.224 uM after 24 hrs by XTT assay; format: cell-based; conditions: hepg2, 24 h
SH-SY5Y [14] = assay: Induction of neuronal differentiation in human SH-SY5Y cells assessed as neurite bearing cells at 0.014 uM followed by culture medium replacement for every three days for 10 days by inverted-phase microscopic analysis relative to control; format: functional
[15] = biological target: Acetylcholinesterase (Electrophorus electricus) (UniProt O42275); assay: Binding affinity to electric eel AChE in presence fixed dose of donepezil by STD NMR spectroscopy method
Acetylcholinesterase [16] = biological target: T1, Acetylcholinesterase; assay: Mixed-type inhibition of human AChE using acetylthiocholine iodide as substrate preincubated for 5 mins followed by substrate addition measured over 5 mins by Lineweaver-Burk plot analysis

T1 sequence (P22303 whole entry): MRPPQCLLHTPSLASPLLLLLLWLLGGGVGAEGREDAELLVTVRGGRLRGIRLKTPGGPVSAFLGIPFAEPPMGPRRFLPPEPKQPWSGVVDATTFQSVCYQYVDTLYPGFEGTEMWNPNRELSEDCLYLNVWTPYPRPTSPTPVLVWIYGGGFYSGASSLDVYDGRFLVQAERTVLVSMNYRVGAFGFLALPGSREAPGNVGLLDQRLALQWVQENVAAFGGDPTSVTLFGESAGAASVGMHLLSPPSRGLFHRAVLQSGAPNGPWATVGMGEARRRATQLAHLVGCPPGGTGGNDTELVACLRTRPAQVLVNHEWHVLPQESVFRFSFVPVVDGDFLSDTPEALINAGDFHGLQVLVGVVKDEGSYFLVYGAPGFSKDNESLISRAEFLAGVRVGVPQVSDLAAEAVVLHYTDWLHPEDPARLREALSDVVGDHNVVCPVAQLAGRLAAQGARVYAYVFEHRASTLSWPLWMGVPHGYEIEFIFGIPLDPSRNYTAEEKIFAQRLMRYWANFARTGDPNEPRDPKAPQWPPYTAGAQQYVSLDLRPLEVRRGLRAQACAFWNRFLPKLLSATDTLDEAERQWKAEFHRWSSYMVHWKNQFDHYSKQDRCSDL
Cholinesterase, sequence (P06276 whole entry): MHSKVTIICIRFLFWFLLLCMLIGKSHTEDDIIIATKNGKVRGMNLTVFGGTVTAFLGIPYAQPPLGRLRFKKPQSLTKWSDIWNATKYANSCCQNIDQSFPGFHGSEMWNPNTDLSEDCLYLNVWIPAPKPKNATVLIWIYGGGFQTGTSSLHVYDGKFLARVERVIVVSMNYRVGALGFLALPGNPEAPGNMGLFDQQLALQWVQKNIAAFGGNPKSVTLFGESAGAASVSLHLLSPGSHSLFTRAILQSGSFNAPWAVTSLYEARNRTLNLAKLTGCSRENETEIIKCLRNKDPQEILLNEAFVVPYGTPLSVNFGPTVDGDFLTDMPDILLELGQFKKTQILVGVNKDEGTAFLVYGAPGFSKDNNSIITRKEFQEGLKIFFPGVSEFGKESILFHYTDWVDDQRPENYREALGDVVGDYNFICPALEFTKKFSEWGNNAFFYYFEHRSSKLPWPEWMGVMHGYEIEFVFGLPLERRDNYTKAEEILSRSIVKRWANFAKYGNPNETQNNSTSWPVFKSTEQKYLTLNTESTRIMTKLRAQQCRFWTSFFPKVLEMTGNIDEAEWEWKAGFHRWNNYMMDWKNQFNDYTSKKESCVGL
Acetylcholinesterase (Electrophorus electricus), sequence (O42275 24-633 limits assumed): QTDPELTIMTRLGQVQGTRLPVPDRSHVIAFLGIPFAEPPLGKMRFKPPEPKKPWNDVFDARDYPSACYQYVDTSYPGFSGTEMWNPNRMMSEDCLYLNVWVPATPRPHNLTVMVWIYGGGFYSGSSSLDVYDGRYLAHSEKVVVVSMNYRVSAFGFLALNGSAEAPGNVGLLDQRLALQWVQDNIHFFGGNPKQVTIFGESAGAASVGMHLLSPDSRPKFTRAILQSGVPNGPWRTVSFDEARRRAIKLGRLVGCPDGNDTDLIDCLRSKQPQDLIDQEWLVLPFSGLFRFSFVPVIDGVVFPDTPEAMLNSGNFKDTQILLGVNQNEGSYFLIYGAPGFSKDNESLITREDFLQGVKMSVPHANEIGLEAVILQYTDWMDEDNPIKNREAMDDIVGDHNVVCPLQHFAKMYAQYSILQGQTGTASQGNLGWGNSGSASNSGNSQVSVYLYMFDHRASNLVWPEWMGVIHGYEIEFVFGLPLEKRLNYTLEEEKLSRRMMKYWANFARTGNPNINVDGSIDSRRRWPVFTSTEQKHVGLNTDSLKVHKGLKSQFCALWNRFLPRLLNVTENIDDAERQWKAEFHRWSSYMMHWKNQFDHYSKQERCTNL

Structure (SMILES): OCC1CCN(Cc2cc(Cl)c3ccccc3n2)CC1
- IC50 (Cholinesterase): > 10 µM
- IC50 (Acetylcholinesterase [1]): > 10 µM

Structure (SMILES): COc1cc2c(cc1OC)C(=O)/C(=C/C1CCN(Cc3cc(Cl)c4ccccc4n3)CC1)C2
- IC50 (Cholinesterase): > 10 µM
- IC50 (Acetylcholinesterase [1]): > 10 µM

Structure (SMILES): [N-]=[N+]=Nc1cc(CN2CCC(C=O)CC2)nc2ccccc12
- IC50 (Cholinesterase): > 10 µM
- IC50 (Acetylcholinesterase [1]): > 10 µM

Structure (SMILES): O=CC1CCN(Cc2cc(Cl)c3ccccc3n2)CC1
- IC50 (Cholinesterase): > 10 µM
- IC50 (Acetylcholinesterase [1]): > 10 µM

Structure (SMILES): COc1cc2c(cc1OC)C(=O)C(CC1CCN(Cc3cc(N)c4ccccc4n3)CC1)C2 (stereo not drawn)
- IC50 (Cholinesterase): 6.54 µM
- minimal effective concentration (SH-SY5Y [2]): 0.088 µM
- Activity (SH-SY5Y [3]): Active
- IC50 (Acetylcholinesterase [1]): 0.71 µM
- Activity (HepG2 [4]): Non-Toxic
- Activity (SH-SY5Y [5]): 43%
- Activity (SH-SY5Y [6]): Active
- Activity (SH-SY5Y [7]): Toxic

Structure (SMILES): COc1cc2c(cc1OC)C(=O)/C(=C/C1CCN(Cc3cc(N)c4ccccc4n3)CC1)C2
- Activity (SH-SY5Y [8]): Active
- Activity (SH-SY5Y [9]): Toxic
- inhibition (Acetylcholinesterase [10]): Active
- IC50 (Cholinesterase): 3.69 µM
- Activity (SH-SY5Y [11]): Active
- minimal effective concentration (SH-SY5Y [2]): 0.0035 µM
- Activity [12]: Active
- Activity (HepG2 [13]): Non-Toxic
- Activity (SH-SY5Y [14]): 55%
- IC50 (Acetylcholinesterase [1]): 0.014 µM
- Activity [15]: Active

Structure (SMILES): COc1cc2c(cc1OC)C(=O)C(CC1CCN(Cc3cc(Cl)c4ccccc4n3)CC1)C2 (stereo not drawn)
- IC50 (Cholinesterase): 5.99 µM
- IC50 (Acetylcholinesterase [1]): > 10 µM

Structure (SMILES): COc1cc2c(cc1OC)C(=O)/C(=C/C1CCN(Cc3cc(N=[N+]=[N-])c4ccccc4n3)CC1)C2
- IC50 (Cholinesterase): > 10 µM
- Activity [12]: inactive
- inhibition (Acetylcholinesterase [16]): Active
- IC50 (Acetylcholinesterase [1]): 4.88 µM
